Values joined by “and” are separate entries in the source; they are usually repeats but may differ in a detail not shown here. Equal entries are not always repeated. Numbers after ± are expanded uncertainties.
Settings: Liquid, Transpiration method

## O [water]
293.15 K
  vapor or sublimation pressure: 2.319 ± 0.094 kPa and 2.32 ± 0.094 kPa and 2.315 ± 0.094 kPa
298.15 K
  vapor or sublimation pressure: 3.178 ± 0.13 kPa

— the NIST ThermoML archive (doi:10.1021/acs.jced.6b00357)
